One data set deals with CT26 subcutaneous tumor. Description: Tumor growth inhibition, CT26 subcutaneous tumor model. The settings on record: for antitumor effect (tumor size, volume, weight), no light: MAC 2.0 mg/kg, PIX 1.8 mg/kg, tail vein every 2 d x5, n = 5. It is filed as in vivo, BALB/c female mice. As to the method:
(§1) CT26 cells were inoculated on the back of BALB/c female mice to construct a subcutaneous tumor model (Fig. S2A). The groups were treated as follows (the same groupings as below): MAC (2.0 mg/kg), CPP (PIX content of 1.8 mg/kg), and CPPM (PIX and MAC contents of 1.8 and 2.0 mg/kg, respectively) were injected separately through the tail vein, and the light group was irradiated using a laser for 6 h after drug administration for 10 min (intensity of 50% and power of 0.68 W). The mice were treated every 2 d for a total of 5 treatments, and tumor volume and body weight were measured every other day. On day 18, the mice were executed by cervical dislocation, and their blood was removed and dissected. The spleens of the mice were weighed, and the mouse tumor tissues were stained for Ki67, terminal deoxynucleotidyl transferase dUTP nick end labeling (TUNEL), and CD3/CD8. Different concentrations of CPPM solutions were prepared with saline; 100 μl of CPPM solution was added into 2 ml of mouse blood and mixed well and incubated in a 37 °C water bath for 1 h. After centrifugation, 100 μl of the supernatant was taken into a 96-well plate, and the absorbance value was measured by an enzyme-labeling instrument at a wavelength of 540 nm and the hemolysis rate was calculated. In addition, blood biochemistry and blood routine indexes were analyzed, and hematoxylin–eosin (H&E) staining was performed on tumor tissues and major organs.

The next data set has as its system CT26 lung metastasis. Description: In vivo antitumor metastasis study (lung metastasis model). Also noted: species or system BALB/c female mice. To be noted: 10 d of treatment, n = 3. As to the method:
The mouse lung metastasis model was established by inoculating CT26 cells on the back of BALB/c female mice and injecting 2 × 10^6 CT26 cells labeled using green fluorescent protein through the tail vein when the tumor volume of the loaded mice reached 100 mm^3 (Fig. S2C). The groups were treated in the same manner as those in the immune response study. The mice were executed after 10 d of treatment, and the lung tissues of the mice were excised and photographed, and the metastatic lung nodules were quantified and H&E-stained for further examination of the extent of lung metastasis.

Data set [1] is described as follows: Blood routine examination. The data set is classed as in vivo, BALB/c female mice. To be noted: CT26 tumor mice, i.v. every 2 d x5, day 18, no light, mean ± SD. On the procedure: as §1
The test system of data set [2] is CT26 cells. Nature of the data set: Cytotoxicity test by the MTT method. It is filed as cell-based, mouse. The settings on record: for cytotoxicity (MTT), dark: CT26, no light, highest PIX 6 μg/ml and MAC 6.72 μg/ml, 6 h + 24 h. As to the method: CT26 cells were seeded into 96-well plates, and materials with different concentration gradients were prepared. Different materials were added into 96-well plates at 100 μl per well according to the concentration gradient, respectively. The highest concentration of PIX in CPP was 6 μg/ml. The highest concentrations of PIX and MAC in CPPM were 6 and 6.72 μg/ml, respectively. After 6 h of incubation, the CPP light group and CPPM light group were irradiated using infrared light for 3 min, and after 24 h, 20 μl of MTT reagent was added, and the absorbance was detected by an enzyme meter (570 nm) and the cell viability was calculated.
On the technique in general: Tetrazolium dyes change colour on reduction, which living cells bring about.

The subject of data set [3] is CT26 cells. Nature of the data set: Flow cytometric apoptosis assay. It is filed as cell-based, mouse. To be noted: flow cytometry annexin V-FITC/PI, 6 h incubation; for apoptosis of CT26 cells, dark: no light. As to the method: After the CT26 cells were cultured on the wall, MAC, CPP, and CPPM were added and incubated for 6 h, and the light group was light-exposed for 5 min, respectively. After the cells were washed, 1× annexin V–FITC (195 μl), annexin V–FITC (5 μl), and PI staining solution (10 μl) were added, respectively, and the reaction was detected by flow cytometry after 10 to 15 min. The concentrations of PIX and MAC in CPPM were […] and 3.3 μg/l, respectively.
A general note: In flow cytometry, cells or beads pass a laser one at a time.

Data set [4] deals with CT26 cells. Nature of the data set: Intracellular ROS detection (DCFH-DA probe). It is filed as cell-based, mouse. The settings on record: CT26, 6 h incubation. On the procedure: The CT26 cells were incubated for 6 h with the addition of MAC, CPP, and CPPM materials, respectively, after wall culture. Subsequently, a 2,7-dichlorodihydrofluorescein diacetate probe was added to stain the cells for 30 min, and the CPP light group and CPPM light group were illuminated for 3 min, and the cells were observed and analyzed by microscopy. The experimental groupings were (the same groupings as below): blank group (blank), MAC group (MAC), CPP group (CPP), CPP light exposure group (CPP+), CPPM group (CPPM), and CPPM light exposure group (CPPM+). The concentration of PIX in CPP was 6 μg/l. The concentrations of PIX and MAC in CPPM were 6 and 6.72 μg/l, respectively.

Data set [5] in a line: Drug content / loading efficiency (PIX by UV-Vis, MAC by HPLC). The data set is classed as physicochemical. The settings on record: UV-Vis at 630 nm, sample diluted to 1 mg/ml. On the procedure: CPP and CPPM were diluted to 1 mg/ml each. MAC was quantified by HPLC with a mobile phase A of water (0.2% TFA), a mobile phase B of acetonitrile, a flow rate of 1 ml/min, and a gradient elution of 10% to 100% B. The peak area of different concentrations of MAC was tested at 277 nm out, and the standard curve was plotted and the drug concentration was tested. PIX was quantified by ultraviolet–visible absorption spectrometry (UV–Vis), and the absorption values of different concentrations of PIX were determined at 630 nm, and the standard curve was plotted and the concentration of PIX was tested. Subsequently, the drug release profiles were determined by HPLC in release media at potential of hydrogen (pH) 5.3 and 7.4.

Data set [6] in a line: In vitro 1O2 assay (Singlet Oxygen Sensor Green). It is filed as physicochemical. To be noted: PBS, SOSG probe, 630-nm laser, measured every 15 s. As to the method: To further explore the ROS-producing behavior of CPPM, MAC, CPP, and CPPM were prepared into 1-ml solutions with phosphate-buffered saline, and 10 μl of reactive oxygen Singlet Oxygen Sensor Green probe was added to each set of solutions. The resulting fluorescence intensity was measured as F0 in an F-302 model fluorescence spectrophotometer (excitation wavelength of 488.0 nm, wavelength range of 500.0 to 550.0 nm), and the fluorescence intensity was measured as Ft under 630-nm laser irradiation every 15 s. The concentration of PIX in CPP was 3 μg/l. The concentrations of PIX and MAC in CPPM were 3 and 3.3 μg/l, respectively.

The subject of data set [7] is CT26 cells. Nature of the data set: ICD immunofluorescence assay (CRT, HMGB1). The data set is classed as cell-based, mouse. The settings on record: CT26, PIX 6 μg/ml, MAC 6.72 μg/ml, 630 nm 29.8 mW cm^-2 10 min. On the procedure: MAC, CPP, and CPPM were added to CT26 cells, and the light group was incubated for 6 h and then irradiated with light-emitting diode light (630 nm, 29.8 mW cm^−2) for 10 min. After continuing incubation for 4 h, paraformaldehyde (4%) and 0.1% Triton X-100 were added for fixation and permeabilization of cells, respectively. Subsequently, the cells were incubated with CRT or HMGB1 fluorescent primary antibody overnight ([…]), secondary antibody for 1 h, and DAPI for 20 min and then observed by microscopy. The PIX concentration was 6 μg/ml, and the MAC concentration was 6.72 μg/ml.

From paper PMC12147445, “Dual-Active Nanoimmunomodulators for the Synergistic Enhancement of the Antitumor Efficacy of Photodynamic Immunotherapy” (Biomaterials Research, 2025) come the findings set out here.

Regarding `CCCNS(=O)(=O)Nc1ncnc(OCCOc2ncc(Br)cn2)c1-c1ccc(Br)cc1` [MAC, Macitentan, reference compound], the “antitumor effect (tumor size, volume, weight), no light” value with CT26 subcutaneous tumor is “low antitumor properties”. Further, in the data set with CT26 lung metastasis, the “lung metastasis, no light” value is listed as “lung metastasis obviously occurred”. In data set [1], this compound yielded a PCT of 0.21 ± 0.06% and a PDW of 17.89 ± 0.54. Also, the Mon in data set [1] (reference 0.00–0.30) was 5.54 ± 1.77 10^9/l. The Gran in [1] (reference 0.10–1.80) is 116.23 ± 32.29 10^9/l. Further, the Lymph in data set [1] (reference 0.70–5.70) is on record as 24.74 ± 5.26 10^9/l. The WBC in [1] (reference 0.80–6.80) was 132.48 ± 37.09 10^9/l. In addition, the RBC in data set [1] (reference 6.36–9.42) is given as 7.82 ± 0.54 10^12/l. In addition, the RDW in data set [1] (reference 13.00–17.00) is reported as 14.91 ± 0.48%. The MCH in data set [1] (reference 15.80–19.00) stood at 16.61 ± 1.12 pg. The HCT in data set [1] (reference 34.60–44.60) turned out to be 37.4 ± 2.73%. The HCV in data set [1] (reference 48.20–58.30) came to 52.75 ± 2.51 fL. The same compound had an HGB in data set [1] (reference 110.00–143.00) of 115.11 ± 15.08 g/L. This compound also gave an MCHC in [1] (reference 302.00–353.00) of 318.78 ± 20.68 g/L. In addition, the “cytotoxicity (MTT), dark” value with CT26 cells [2] was “no significant toxic effects”. Moreover, the “apoptosis of CT26 cells, dark” value in the data set with CT26 cells [3] was “lower apoptosis rates”.
Turning to “C (PEG5000-Mal)-VRARTR-PIX [CPP, PEG5000-Mal assembled with CP; CPP+ is the light exposure group]”, the “antitumor effect (tumor size, volume, weight), no light” value in the data set on CT26 subcutaneous tumor is “low antitumor properties”. In addition, the “antitumor effect (tumor size, volume, weight), light” value in the data set with CT26 subcutaneous tumor (PIX 1.8 mg/kg (MAC 2.0 mg/kg), tail vein every 2 d x5, laser 10 min 6 h after dosing, n = 5) was “able to inhibit tumor growth”. In addition, the “intracellular ROS, light” value with CT26 cells [4] (light 3 min) was “showed green fluorescence”. Moreover, the “intracellular ROS, dark” value in the data set on CT26 cells [4] (no light) is “did not produce ROS”. Further, in [5], the “loading efficiency of PIX” value turned out to be 12.09%. Moreover, the 1O2 generation result in [6] is given as “could produce ^1O2 under light conditions”. Further, the “lung metastasis, light” value in the data set with CT26 lung metastasis (laser) is listed as “a few lung metastases were visible”. Moreover, the “lung metastasis, no light” value in the data set with CT26 lung metastasis is given as “lung metastasis obviously occurred”. In addition, the “cytotoxicity (MTT), light” value with CT26 cells [2] (CT26, 6 h incubation then light 3 min, 24 h, highest PIX 6 μg/ml) is “stronger cytotoxicity”. Moreover, the “cytotoxicity (MTT), dark” value with CT26 cells [2] is “no significant toxic effects”. In the data set with CT26 cells [7], the “CRT expression on the cell membrane under PDT” value is “increase the expression of CRT on the cell membrane” and the “HMGB1 in tumor cells under PDT” value is listed as “significantly attenuated”. For the same compound, the “apoptosis of CT26 cells, light” value with CT26 cells [3] (light 5 min) is listed as “significantly higher”. The “apoptosis of CT26 cells, dark” value with CT26 cells [3] is given as “lower apoptosis rates”.
